Test results as given in US20240294545A1 (CSPC Zhongqi Pharmaceutical Technology (Shijiazhuang) Co., …, priority 2020, published 2024).
Marks after values point to notes of the source that are not given here.

Key:
ATM = ATM (Homo sapiens (Human), UniProt Q13315); test: Caliper mobility shift assay for ATM; type: biochemical; details: read-out: IC50 of inhibitory activity on ATM kinase
Protocol: 1.2 Determination of the Inhibitory Activities of Compounds on ATM: Caliper Mobility Shift Assay for ATM
To a 96-well plate, 98 μL of DMSO and 2 μL of the 10 mM stock solution were added and mixed evenly so that the concentration of the solution was 200 μM.
Based on the inhibitory rates of the compound at different concentrations, IC50 was calculated according to the formula: Y=Bottom+(Top−Bottom)/(1+(IC50/X)^HillSlope).

ATM-phosphorylated KAP1 = test: Intracellular ATM-phosphorylated KAP1 level, ICW assay in MCF7 cells; type: cell-based, Human; details: Homo sapiens, light or radiation study; MCF7 cells, 2 h compound, 10 Gy irradiation, further 1 h; read-out: pKAP1 IC50
Protocol: 4 Inhibition on Intracellular ATM-Phosphorylated KAP1 Level by the Compounds of the Present Disclosure: ICW Assay
• Cell: Human breast cancer cell line MCF7 • Materials and reagents:
4.2 Experimental Procedures
• (1) Cell inoculation • MCF7 cells were inoculated on a 384-well plate, 10000 cells/well (25 μL/well), and cultured overnight at 37° C. with 5% CO2. • (2) Activity detection • 1) The compound was formulated into a 100 mM solution with DMSO and then sequentially diluted with a gradient of 1:3 to yield a total of 10 concentration gradients, wherein the maximum concentration was 100 μM. • 2) 25 nL of each of the compound solutions with gradient concentrations prepared in step 1) was added to each well of the cell plate (Corning #356663) by using I-DOT One, resulting in a final concentration of 100 nM (maximum dose). • 3) The cell plate containing compound was incubated at 37° C. with 5% CO2 for 2 h. After 2 h, the cell plate was irradiated with a dose of 10 Gy, and then further incubated for 1 h. • 4) 25 μL of 8% paraformaldehyde was added to each well, followed by incubating at room temperature for 20 min. • 5) The 8% paraformaldehyde was discarded, followed by adding 0.1% TrintonX-100 and incubating at room temperature for 30 min. • 6) Odessey blocking buffer was added at 50 μL/well, followed by incubating at room temperature for 1.5 h. • 7) The Odessey blocking buffer was discarded, and then a primary antibody (Phospho-KAP1, 1:2000 dilution) was added, followed by incubating overnight at 4° C. • 8) The primary antibody was removed, followed by washing with PBS+0.1% Tween 20 for 5 times. • 9) DNA dye DRAQ5 coated with a second antibody (IRDye 800CW Goat anti-Rabbit, 1:4000 dilution) was added, followed by incubating at room temperature for 1 h. • 10) The second antibody was removed, followed by washing with PBS+0.1% Tween 20 for 5 times. • 11) PBS+0.1% Tween 20 was sucked off with Odyssey. • (3) Data analysis • 1) the relative ratio of Channel 800/Channel 700 for each well was detected. • 2) % of KAP1 phosphorylation was calculated according to the following formula:
% of KAP1 phosphorylation=[(Ratiocmpd−(Ratio)Positive)/((Ratio)Vehicle−(Ratio)Positive]*100 • (Ratio)Positive: the mean value of the test values of each positive control well in the test cell plate; • (Ratio)Vehicle: the mean value of the test values of each negative control well in the test cell plate. • 3) the IC50 of each compound was calculated and the dose-effect curve was plotted: % of KAP1 phosphorylation and log of compound's concentration were fit by using Graphpad 8.0 so as to calculate the IC50.
[formula] • X: log of compound's concentration • Y: % of KAP1 phosphorylation

[1] = system: intracranial murine glioma GL-261-Luc; test: Intracranial murine glioma GL-261-Luc model, combined with radiotherapy; type: in vivo, C57BL/6 mice; details: for D17 BLI / D 17 TGI: compound 10 mg/kg intragastric qd × 5 + IR 2 Gy; for D17 BLI: day 17; for D 17 TGI: day 17, from bioluminescence
Protocol: 8 Efficacy Test of the Compounds of the Present Disclosure Combined with Radiotherapy in the Intracranial Murine Glioma GL-261-Luc Model
8.1 Experimental Animals: C57BL/6 Mice, SPF, Female, 19 to 22 g.
GL-261-Luc tumor cells, DMEM medium:fetal bovine serum=90%:10%, accompanied by adding […] L-Glu, 37° C., 5% CO2.
Female C57BL/6 mice were anesthetized with Shutai 50 (60 mg/mL) and thiazine (1.5 mg/mL). Buprenorphine (0.1 mg/kg) was injected subcutaneously 30 min before operation and 6 h after operation to relieve pain. The operation area was disinfected with 70% ethanol solution. A sagittal incision was made on the parietal-occipital bone of anesthetized mice with a sterile scalpel, after cleaning the exposed skull surface with 3% hydrogen peroxide solution, tumor cells were injected. After injection, the skull was cleaned with 3% hydrogen peroxide solution, dried with a sterile dry cotton swab, and the incision was sutured. The state of mice was examined continuously to ensure that mice fully recovered from anesthesia.
The inoculated mice were weighed and intraperitoneally injected with […] (150 mg/kg). After 10 min injection, the animals were anesthetized with a mixture of oxygen and isoflurane. When the animal was completely anesthetized, it was moved into the imaging room for bioluminescence detection. The bioluminescence signal of the whole animal was measured and recorded for the image.
Bioluminescence detection was performed on the second day after operation, and the tumor-bearing mice were randomly divided into groups according to the intensity of bioluminescence. The specific groups were as follows. The administration route was intragastric administration and then JR 1 h after administration.
After grouping, bioluminescence detection was performed 1 to 2 times a week, according to the bioluminescence data, tumor growth inhibitory rate was calculated as follows: TGI (%)=[1−(Ti−T0)/(Vi−V0)]×100, wherein Ti represents the mean bioluminescence data of a given treatment group on a certain day; T0 represents the mean bioluminescence data of this treatment group at the beginning of administration; Vi represents the mean bioluminescence data of the vehicle control group on a certain day (the same day as that in Ti); V0 represents the mean bioluminescence data of the vehicle control group at the beginning of administration.

ATM, sequence (Q13315 whole entry): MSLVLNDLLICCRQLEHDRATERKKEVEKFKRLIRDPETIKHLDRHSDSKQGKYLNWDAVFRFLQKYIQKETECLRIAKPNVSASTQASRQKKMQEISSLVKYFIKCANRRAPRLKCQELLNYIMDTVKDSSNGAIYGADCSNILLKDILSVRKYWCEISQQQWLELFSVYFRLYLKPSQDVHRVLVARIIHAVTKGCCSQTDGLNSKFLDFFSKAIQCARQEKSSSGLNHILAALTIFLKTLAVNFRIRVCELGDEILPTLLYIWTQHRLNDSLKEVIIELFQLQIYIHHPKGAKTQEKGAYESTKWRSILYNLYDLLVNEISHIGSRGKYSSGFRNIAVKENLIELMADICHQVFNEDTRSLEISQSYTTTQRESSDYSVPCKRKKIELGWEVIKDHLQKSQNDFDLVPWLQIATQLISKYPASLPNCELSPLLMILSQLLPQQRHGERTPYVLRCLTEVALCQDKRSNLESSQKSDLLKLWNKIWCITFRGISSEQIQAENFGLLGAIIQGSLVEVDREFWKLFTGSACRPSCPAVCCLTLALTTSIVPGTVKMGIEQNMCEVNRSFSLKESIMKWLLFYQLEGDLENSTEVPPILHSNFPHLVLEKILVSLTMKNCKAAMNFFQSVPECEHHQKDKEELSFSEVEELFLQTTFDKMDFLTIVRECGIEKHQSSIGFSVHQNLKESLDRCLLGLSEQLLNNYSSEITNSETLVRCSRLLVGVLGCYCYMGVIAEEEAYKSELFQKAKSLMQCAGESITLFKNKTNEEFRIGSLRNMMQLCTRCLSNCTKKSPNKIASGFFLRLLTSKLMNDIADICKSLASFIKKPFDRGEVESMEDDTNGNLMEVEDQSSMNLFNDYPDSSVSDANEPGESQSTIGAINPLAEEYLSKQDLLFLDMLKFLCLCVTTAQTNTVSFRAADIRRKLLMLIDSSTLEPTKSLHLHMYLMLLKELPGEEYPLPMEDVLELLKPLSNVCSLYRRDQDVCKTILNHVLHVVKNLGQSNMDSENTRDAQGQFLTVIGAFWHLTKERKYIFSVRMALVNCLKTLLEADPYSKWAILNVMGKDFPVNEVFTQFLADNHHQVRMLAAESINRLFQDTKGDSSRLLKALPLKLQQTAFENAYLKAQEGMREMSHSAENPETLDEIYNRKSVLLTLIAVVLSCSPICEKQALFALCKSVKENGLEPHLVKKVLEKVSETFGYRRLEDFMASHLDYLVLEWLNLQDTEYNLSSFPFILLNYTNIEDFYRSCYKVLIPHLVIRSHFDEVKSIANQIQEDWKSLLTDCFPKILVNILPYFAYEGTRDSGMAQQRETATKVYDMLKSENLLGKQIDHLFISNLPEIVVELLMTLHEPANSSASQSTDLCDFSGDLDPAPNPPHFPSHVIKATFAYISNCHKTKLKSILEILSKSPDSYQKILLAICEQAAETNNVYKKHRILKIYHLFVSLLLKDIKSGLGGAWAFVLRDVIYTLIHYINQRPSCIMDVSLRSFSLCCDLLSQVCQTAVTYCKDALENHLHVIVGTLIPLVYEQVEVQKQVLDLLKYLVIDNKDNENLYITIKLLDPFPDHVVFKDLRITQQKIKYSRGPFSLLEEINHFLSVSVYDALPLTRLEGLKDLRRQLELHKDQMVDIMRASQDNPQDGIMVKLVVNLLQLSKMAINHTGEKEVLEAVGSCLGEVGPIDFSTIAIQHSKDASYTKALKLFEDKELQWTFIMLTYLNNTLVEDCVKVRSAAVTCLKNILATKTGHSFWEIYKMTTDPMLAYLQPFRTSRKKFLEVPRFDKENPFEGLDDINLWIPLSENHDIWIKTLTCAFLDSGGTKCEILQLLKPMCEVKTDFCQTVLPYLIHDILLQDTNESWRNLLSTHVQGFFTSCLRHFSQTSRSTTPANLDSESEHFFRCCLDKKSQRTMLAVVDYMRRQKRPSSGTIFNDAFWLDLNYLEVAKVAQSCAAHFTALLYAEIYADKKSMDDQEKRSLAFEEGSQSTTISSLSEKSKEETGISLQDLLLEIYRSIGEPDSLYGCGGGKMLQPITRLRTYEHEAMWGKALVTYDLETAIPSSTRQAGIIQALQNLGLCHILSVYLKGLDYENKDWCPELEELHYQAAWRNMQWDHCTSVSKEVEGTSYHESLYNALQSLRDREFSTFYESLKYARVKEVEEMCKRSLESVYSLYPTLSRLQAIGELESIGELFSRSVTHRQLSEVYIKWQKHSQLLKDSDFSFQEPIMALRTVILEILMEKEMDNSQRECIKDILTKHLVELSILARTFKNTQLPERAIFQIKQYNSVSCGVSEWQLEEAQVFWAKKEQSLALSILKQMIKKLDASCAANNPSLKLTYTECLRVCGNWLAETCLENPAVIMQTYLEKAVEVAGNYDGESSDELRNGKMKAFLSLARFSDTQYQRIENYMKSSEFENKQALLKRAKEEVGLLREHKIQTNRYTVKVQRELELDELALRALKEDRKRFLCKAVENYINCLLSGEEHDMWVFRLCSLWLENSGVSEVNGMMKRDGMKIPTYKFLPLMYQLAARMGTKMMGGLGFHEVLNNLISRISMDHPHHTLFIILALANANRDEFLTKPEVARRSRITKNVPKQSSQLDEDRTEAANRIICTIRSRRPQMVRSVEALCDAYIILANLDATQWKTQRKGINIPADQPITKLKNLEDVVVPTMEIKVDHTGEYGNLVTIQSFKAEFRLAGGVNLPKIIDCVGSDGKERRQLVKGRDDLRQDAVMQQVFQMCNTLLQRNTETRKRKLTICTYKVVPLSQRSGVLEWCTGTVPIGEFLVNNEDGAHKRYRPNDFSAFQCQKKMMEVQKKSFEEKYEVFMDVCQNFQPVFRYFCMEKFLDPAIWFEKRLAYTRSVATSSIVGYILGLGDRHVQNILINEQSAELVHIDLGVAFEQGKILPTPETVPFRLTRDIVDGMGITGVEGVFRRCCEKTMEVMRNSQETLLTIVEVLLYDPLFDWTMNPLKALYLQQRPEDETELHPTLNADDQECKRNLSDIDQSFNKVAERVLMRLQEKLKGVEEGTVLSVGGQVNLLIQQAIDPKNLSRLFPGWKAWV

Row | Structure (SMILES) | IC50 (ATM) | IC50 (ATM-phosphorylated KAP1) | D17 BLI [1] | D 17 TGI [1] | anti-tumor activity, in words ([1]; combined with radiotherapy, compared with AZD1390)
1 | CC(C)n1c(=O)n(C)c2cnc3cc(F)c(-c4ccc(OCCCN5CCCCC5)nc4)cc3c21 [AZD1390, reference compound] | 0.2 nM | 0.45 nM | 4.90*** LOG10 | 124.08% | –
2 | Cn1c(=O)n2c3c4c(c(-c5ccc(OCCCN6CCCCC6)nc5)c(F)cc4ncc31)NCC2(C)C [Example A-193, 6-fluoro-2,10,10-trimethyl-7-(6-(3-(piperidin-1-yl)propoxy)pyridin-3-yl)-2,8,9,10-tetrahydro-1H-2,4,8,10a-tetraazanaphtho[2,1,8-cde]azulen-1(2H)-one] | 0.65 nM | 1.75 nM | 4.94*** LOG10 | 122.49% | equivalent to that of AZD1390
